≈ marks a conversion by molar mass, not a printed value.
Assays:
PC-3 = assay: Cytotoxicity against human PC3 cells; assay type: functional
MIA PaCa-2 = assay: Cytotoxicity against human MIAPaCa2 cells; assay type: functional
MCF7 = assay: Cytotoxicity against human MCF7 cells; assay type: functional; conditions: read-out: ED50 (the source's name)
HT-29 = assay: Cytotoxicity against human HT29 cells; assay type: functional; conditions: read-out: ED50 (the source's name)
A549 = assay: Cytotoxicity against human A549 cells; assay type: functional
A498 = assay: Cytotoxicity against human A498 cells; assay type: functional
[1] = Toxicity in brine shrimp; assay type: organism-based; conditions: artemia, in vivo

Structure (SMILES) | EC50 (PC-3; Homo sapiens, PC-3, read-out: ED50 (the source's name)) | EC50 (MIA PaCa-2; Homo sapiens, MIA PaCa-2, read-out: ED50 (the source's name)) | EC50 (MCF7) | EC50 (HT-29) | EC50 (A549; Homo sapiens, A549, read-out: ED50 (the source's name)) | EC50 (A498; Homo sapiens, A498, read-out: ED50 (the source's name)) | ED50 (PC-3) | ED50 (MIA PaCa-2) | ED50 (A549) | LC50 [1] | ED50 (A498)
COc1cccc2c1C(=O)c1c(O)c3c(c(O)c1C2=O)C[C@@](O)(C(=O)CO)C[C@@H]3O[C@H]1C[C@H](N)[C@H](O)[C@H](C)O1 [DOXORUBICIN] | 0.0281 µg/mL (≈ 0.0517 µM) | 0.0224 µg/mL (≈ 0.0412 µM) | 0.0968 µg/mL (≈ 0.178 µM) | 0.0193 µg/mL (≈ 0.0355 µM) | 0.00157 µg/mL (≈ 0.00289 µM) | 0.0019 µg/mL (≈ 0.0035 µM) |  |  |  |  | 
CCCCCCCCCCCC[C@H](O)[C@H]1CC[C@H]([C@H](O)CC[C@H](O)CCCCCCCCC[C@@H](O)CC2=C[C@H](C)OC2=O)O1 [ROLLINECIN A] |  |  | 1.44 µg/mL (≈ 2.3 µM) | 1.6 µg/mL (≈ 2.56 µM) |  |  | 2.62 ×10⁻⁴ ug/ml | 3.47 ×10⁻⁵ ug/ml | 1.14 ×10⁻⁴ ug/ml | 0.31 µg/mL (≈ 0.496 µM) | 7.25 ×10⁻⁴ ug/ml
CCCCCCCCCCCC[C@H](O)[C@H]1CC[C@H]([C@H](O)CC[C@@H](O)CCCCCCCCC[C@@H](O)CC2=C[C@H](C)OC2=O)O1 [ROLLINECIN B] |  |  | 2.72 µg/mL (≈ 4.35 µM) | 1.44 µg/mL (≈ 2.3 µM) |  |  | 3.62 ×10⁻⁴ ug/ml | 2.53 ×10⁻⁴ ug/ml | 4.23 ×10⁻⁴ ug/ml | 0.13 µg/mL (≈ 0.208 µM) | 2.29 ×10⁻⁴ ug/ml

Source: ChEMBL document CHEMBL1158214, “Rollinecins A and B: two new bioactive annonaceous acetogenins from Rollinia mucosa” (J Nat Prod, 1996)
